From paper PMC12395807, “Chemoreceptor family in plant-associated bacteria responds preferentially to the plant signal molecule glycerol 3-phosphate” (Genome Biology, 2025)

How the values were obtained:
[1] = target: LBD of chemoreceptor R7 (WP_019915375.1); assay: ITC binding to R7-LBD; parameters: species or system Methyloversatilis discipulorum; conditions: 20 °C, Nb = no binding
Protocol: (§1) Plasmids for the overexpression of the different proteins were transformed into E. coli BL21(DE3). The resulting strains were grown under continuous stirring (200 rpm) at 30 °C in 2-L Erlenmeyer flasks containing 500 mL of LB medium supplemented with 50 μg/mL kanamycin. At an OD660 of 0.5, protein expression was induced by the addition of 0.1 mM isopropyl β-D-1-thiogalactopyranoside. Growth was continued at 16 °C overnight prior to cell harvesting by centrifugation at 10,000 × g for 20 min. Cell pellets were resuspended in buffer A (Additional file 2: Table S4) and subsequently broken by French press treatment at 62.5 lb/in^2. After centrifugation at 20,000 × g for 30 min, the supernatants were loaded onto 5-mL HisTrap HP columns (Amersham Biosciences) equilibrated with buffer A, and the proteins were eluted with a linear gradient of buffer B (Additional file 2: Table S4). All proteins contain a hexa-histidine tag at the N-terminal extension (Additional file 2: Table S3) and were purified at 4 °C. The purified proteins were dialyzed overnight into the corresponding analysis buffers (Additional file 2: Table S4) for immediate analysis.
(§2) All experiments were conducted on a VP microcalorimeter (Microcal, MA) at 15 °C for PacP-LBD and at 20 °C for the remaining proteins. Proteins were dialyzed into the analysis buffers specified in Additional file 2: Table S4, placed into the sample cell and titrated with aliquots of ligand solutions (1 to 10 mM) freshly prepared in dialysis buffer. The mean enthalpies measured from the injection of the ligands into the analysis buffer were subtracted from the raw titration data prior to data analysis with the MicroCal version of ORIGIN. The data were fitted with the “One binding site model” of ORIGIN.

[2] = target: LBD of chemoreceptor R4 (WP_158281851.1) (Rivihabitans pingtungensis, UniProt A0A318KJN4); assay: ITC binding to R4-LBD; parameters: species or system Rivicola pingtungensis; conditions: 20 °C, Nb = no binding
Chain of LBD of chemoreceptor R4 (WP_158281851.1) (A0A318KJN4 entry or part of it): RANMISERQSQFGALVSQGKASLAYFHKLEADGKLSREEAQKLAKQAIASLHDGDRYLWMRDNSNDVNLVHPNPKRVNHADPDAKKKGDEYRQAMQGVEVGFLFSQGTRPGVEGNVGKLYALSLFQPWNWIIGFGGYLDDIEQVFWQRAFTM
Protocol: as §1, §2

[3] = test system: Pectobacterium atrosepticum SCRI1043; assay: Growth experiment, sole phosphorus source; format: cell-based; conditions: PFM9 minimal medium, 5 mM ligand, 30 °C, 48 h
Protocol: (§3) P. atrosepticum SCRI1043 was cultured overnight in phosphate-free M9-based medium (PFM9) supplemented with 20 mM glucose as the carbon source and 500 µM inorganic phosphate as the phosphate source. Cultures were washed and then diluted to an OD600 of 0.02 in PFM9 supplemented with different PacP ligands as the sole carbon or phosphorous source at a final concentration of 5 mM. Subsequently, 200 µL aliquots of these cultures were transferred into microwell plates, which were subsequently grown at 30 °C on a Bioscreen microbiological growth analyzer (Oy Growth Curves Ab Ltd., Helsinki, Finland) for 48 h.

[4] = target: LBD of chemoreceptor R10 (WP_028866120.1); assay: ITC binding to R10-LBD; parameters: species or system Psychromonas aquimarina; conditions: 20 °C, Nb = no binding
Protocol: as §1, §2

[5] = test system: ECA_RS12390-LBD (PacP-LBD); assay: Thermal shift ligand screening of PacP-LBD; format: binding, Pectobacterium atrosepticum; conditions: thermal shift assay, Biolog arrays PM1, PM2A, PM3B, PM4A
Protocol: (§4) Assays were carried out on a MyIQ2 Real-Time PCR instrument (Bio-Rad, Hercules, CA, USA). Ligand solutions were prepared by dissolving the array compounds in 50 µL of Milli-Q water, which, according to the manufacturer, corresponds to a concentration of 10–20 mM. Freshly purified proteins were dialyzed into analysis buffer (Additional file 2: Table S4). Compound arrays PM1, PM2A (carbon sources), PM3B (nitrogen sources), and PM4A (phosphorus and sulfur sources) from Biolog (https://www.biolog.com/) were used. The compositions of these arrays are provided in Additional file 2: Table S1. The experiments were conducted in 96-well plates, and each assay mixture contained 20 µL of the dialyzed protein (at 80–50 µM), 2 µL of 5 × SYPRO orange (Life Technologies, Eugene, Oregon, USA), and 2.5 µL of the resuspended array compound or the equivalent amount of buffer in the ligand-free control. The samples were heated from 23 to 85 °C at a scan rate of 1 °C/min. The protein unfolding curves were monitored by detecting changes in SYPRO® Orange fluorescence. The Tm values were determined from the first derivative values of the raw fluorescence data.

R3 LBD (WP_006464688.1) = assay: Thermal shift ligand screening of R3; format: binding, Herbaspirillum frisingense; conditions: thermal shift assay, R3, arrays PM1, PM2A, PM3B, PM4A
Protocol: as §4

[6] = target: LBD of chemoreceptor R2 (WP_136157342.1) (Brenneria roseae, UniProt A0A2U1TV64, H128N/K136R); format: binding; conditions: ITC, 20 °C, R2 LBD; Nb = no binding
Chain of LBD of chemoreceptor R2 (WP_136157342.1) (A0A2U1TV64 28-178 H128N/K136R): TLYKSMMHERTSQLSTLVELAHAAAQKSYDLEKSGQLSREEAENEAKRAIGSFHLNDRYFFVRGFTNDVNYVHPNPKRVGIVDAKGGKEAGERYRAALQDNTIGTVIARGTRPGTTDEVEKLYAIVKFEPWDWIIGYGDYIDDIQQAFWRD
Protocol: as §1, §2

R2 LBD (WP_136157342.1) = assay: Thermal shift ligand screening of R2; format: binding, Brenneria roseae; conditions: thermal shift assay, R2, arrays PM1, PM2A, PM3B, PM4A
Protocol: as §4

R4 LBD (WP_158281851.1) = assay: Thermal shift ligand screening of R4; format: binding, Rivicola pingtungensis; conditions: thermal shift assay, R4, arrays PM1, PM2A, PM3B, PM4A
Protocol: as §4

[7] = test system: Pectobacterium atrosepticum SCRI1043; assay: Growth experiment, sole carbon source; format: cell-based; conditions: PFM9 minimal medium, 5 mM ligand, 30 °C, 48 h
Protocol: as §3

[8] = test system: PacP-LBD mutant (Y86, H100, R105, Y121, K148 and Y167 replaced by alanine); assay: ITC binding to PacP-LBD binding site motif mutant; parameters: species or system Pectobacterium atrosepticum; conditions: 36 μM PacP-LBD alanine mutant; 1 mM glycerol 3-phosphate, 2.5 mM glyceraldehyde 3-phosphate
Protocol: as §1, with “The purified proteins were dialyzed overnight into the corresponding analysis buffers (Additional file 2: Table S4) for immediate analysis.” left out
All experiments were conducted on a VP microcalorimeter (Microcal, MA) at 15 °C for PacP-LBD and at 20 °C for the remaining proteins. […] The mean enthalpies measured from the injection of the ligands into the analysis buffer were subtracted from the raw titration data prior to data analysis with the MicroCal version of ORIGIN. […]

Chain of LBD of chemoreceptor R7 (WP_019915375.1) (as listed by the source): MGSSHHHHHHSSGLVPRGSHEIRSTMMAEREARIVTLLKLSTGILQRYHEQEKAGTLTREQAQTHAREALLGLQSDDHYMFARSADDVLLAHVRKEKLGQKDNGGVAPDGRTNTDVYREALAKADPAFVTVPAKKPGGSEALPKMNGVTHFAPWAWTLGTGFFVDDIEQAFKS

Row | SMILES | KD [1] | Kd [2] [µM] | growth as sole phosphorus source [3] | KD [4] | Tm change with respect to the ligand-free protein [5] | KD ([1]; listed as Glycerol 3-P) | Tm change (R3 LBD (WP_006464688.1)) | KD [6] | Tm change (R2 LBD (WP_136157342.1)) | Tm change (R4 LBD (WP_158281851.1)) | growth as sole carbon source [7] | binding in microcalorimetric titration [8]
1 | O=C(O)[C@@H](O)COP(=O)(O)O [3-phosphoglycerate] | Nb | 926 ± 8 | permitted growth | Nb | significant increases in Tm |  |  |  |  |  |  | 
2 | O=P(O)(O)OCC(O)CO (centres unmarked) [glycerol 3-phosphate] | bound | 7 ± 0.2 | supported growth | Nb | significant increases in Tm | Nb | significant increases in the Tm | showed binding | increases in the Tm | significant increases in the Tm | supported growth | absence of binding
